Reference: US11707474B2, “Methods for treating acute myeloid leukemia and related conditions” (GlycoMimetics, Inc., priority 2018, dated 2023)

Columns and labels:
[1] = system: MLL-AF9-induced AML leukemia; test: Syngeneic MLL-AF9 induced AML leukemia survival model; assay type: in vivo, mice; conditions: 40 mg/kg BID 10 days with cytarabine/DOX
Procedure: The impact of a compound of Formula (I) when administered adjunctively with cytarabine/DOX chemotherapy was evaluated in the syngeneic MLL-AF9 induced AML leukemia model.
Bone marrow from mice bearing MLL-AF9-inducted leukemia was harvested and enriched for kit+ cells and frozen in aliquots for subsequent transplant. Recipient mice were then injected with 3×10^4 leukemic cells 2 days after conditioning (Study day 0). Six days after leukemic injection, mice were randomized into 3 groups (n=8/group): a group administered a compound of Formula (I) at 40 mg/kg BID (i.e. 80 mg/kg per day) for 10 days, a group administered cytarabine/DOX (cytarabine at 100 mg/kg QD for 5 days, DOX at 1 mg/kg QD for 2 days), and a group administered a combined regimen of cytarabine/DOX/compound of Formula (I).

[2] = system: relapsed/refractory (R/R) acute myeloid leukemia (AML); test: Phase 2 clinical outcomes, relapsed/refractory AML, sodium salt infusion with MEC; assay type: in vivo, human
Procedure: In this Phase 2 study related to the Phase 1 study described above (see Example 13), 47 additional subjects were administered the RP2D dose of 10 mg/kg/dose. The data of the 19 subjects in the 10 mg/kg/dose arm of the Phase 1 study was added to the data of these 47 additional subjects, resulting in data for 66 human subjects being considered in the Phase 2 study.
In detail, consistent with the Phase 1 study protocols, a total of 66 human subjects with relapsed/refractory (R/R) acute myeloid leukemia (AML) were selected for this study (i.e., the 19 subjects from the 10 mg/kg/dose arm of the Phase 1 study plus 47 additional subjects).
Whether as part of the Phase 1 study (for 19 of the subjects) or as an additional subject for the Phase 2 study, each subject received a total of 15 infusions of the RP2D dose of 10 mg/kg/dose of the compound of Formula (I), administered as the sodium salt, over 8 days with a nominal infusion duration of 20 minutes (either as part of the Phase 1 study for 19 subjects or as a new Phase 2). The formulation for the infusion solution was as follows: […]
The first dose of a compound of Formula (I) was administered 24 hours±1 hour prior to the first dose of MEC (mitoxantrone, etoposide, and cytarabine) induction chemotherapy as a sentinel dose to evaluate the effect of the compound of Formula (I) alone (i.e., a single dose of 10 mg/kg the day before the first chemotherapy day). The compound of Formula (I) was then administered every 12 hours±1 hour on chemotherapy days, starting 2 hours prior to chemotherapy (i.e., 20 mg/kg per day on chemotherapy days). […] MEC chemotherapy was administered on Days 2-6.
The clinical outcome for each subject was assessed at the time of count recovery following completion of induction chemotherapy. Subjects were assigned to one of four response groups: complete remission (“CR”); complete remission with incomplete count recovery (“CRi”); morphologic leukemia-free state (“MLFS”); persistent disease (“PD”). Complete remission was defined as bone marrow blasts <5%; absence of circulating blasts and blasts with Auer rods; absence of extramedullary disease; ANC ≥1.0×10^9/L and platelets ≥100,000×10^9/L. Complete remission with incomplete recovery was defined as: all CR criteria except for residual neutropenia (<1.0×10^9/L) or thrombocytopenia (<100,000×10^9/L). Morphologic leukemia-free state was defined as: bone marrow blasts <5%; absence of blasts with Auer rods; absence of extramedullary disease; no hematologic recovery required. Persistent disease was defined as: bone marrow blasts >5%.
Outcomes shown below provide data for Phase 1 (Example 13, all cohorts combined), Phase 2, and Total (Phase 1 and Phase 2) subject populations.

[3] = system: relapsed/refractory (R/R) AML; test: Exposure-response analysis for efficacy; assay type: in vivo, human; conditions: 46 R/R AML subjects; 5, 10, 20 mg/kg BID with MEC
Procedure: To generate exposure metrics for the analyses in Example 14 and Example 15, a Pop-PK analysis, based on sampling of plasma concentrations (Cp) of the compound of Formula (I) during induction treatment, was conducted to identify an appropriate PK model, key covariates of the model, and to generate post hoc population PK metrics for all patients sampled for PK. The Pop-PK analysis comprised 59 subjects, 46 subjects diagnosed with relapsed/refractory (R/R) AML who were administered a compound of Formula (I) with MEC chemotherapy and 13 older subjects (aged 60 years or older) with newly diagnosed AML who were administered a compound of Formula (I) with 7+3 chemotherapy. Pop-PK modeling identified a three compartment model with renal function as the only significant covariate.
For Example 14, Exposure-Response (“E-R”) analysis evaluating efficacy measures against PK metrics was conducted using clinical response efficacy data from the 46 R/R AML subjects. R/R AML subjects were administered MEC chemotherapy and 5, 10, and 20 mg/kg of a compound of Formula (I) BID (i.e. 10, 20, and 40 mg/kg per day).
Exposure metrics were generated using the Pop-PK model described above.
Using clinical measures of efficacy described in Example 13 each subject was assigned to one of five clinical response categories: CR, CRi, MLFS, PD, and death. […]

[4] = system: KG1 cells; test: Systemic KG1 AML model survival; assay type: in vivo, NSG female mice
Procedure: The potential relevance of these in vitro observations was assessed in NSG female mice with pre-existing disseminated KG1 cells and treated with a compound of Formula (I) (40 mg/kg, IP, QD for 14 days), 5-azacytidine (5 mg/kg, IP, administered on days 7, 10, 13, 16, and 19 (5 doses total)), or the combination of both compounds. Under the conditions of the assay, the median survival time of mice treated with saline alone or a compound of Formula (I) was 69.5 and 69 days, respectively (FIG. 9). Administration of a compound of Formula (I) with 5-azacytidine increased median survival time beyond that obtained with 5-azacytidine treatment alone (>104 days versus 88 days; P=0.014, FIG. 9).

CC[C@@H]1CC(C(=O)NCCNC(=O)CCOCCOCCOCCOCCOCCOCCOCCOCCOCCOCCOCCOC)C[C@@H](O[C@@H]2O[C@@H](CO)[C@H](O)C(O[C@@H](CC3CCCCC3)C(=O)O)C2NC(C)=O)C1OC1O[C@@H](C)C(O)[C@H](O)[C@@H]1O (stereo partly shown) [compound of Formula (I)]
MST [1]: 41 days | increased lifespan [1]: 64% | response rate (CR/CRi) ([2]; after a single course of induction treatment with MEC): over 40% | severe oral mucositis rate ([2]; with MEC): 2-3% | one-year survival rate, MRD negative subjects ([2]; with MEC, RP2D 10 mg/kg/dose): 73% | one-year survival rate, all subjects ([2]; with MEC, RP2D 10 mg/kg/dose): 35% | median overall survival ([2]; with MEC, RP2D 10 mg/kg/dose, 95% CI 5.7-11.4): 8.8 months | exposure-response for remission (Fx > IC50, Fx > IC90, Cmax, AUC vs response category) [3]: significant overlap in all exposure-response metrics relating to remission for those subjects attaining CR and those with PD | median survival time ([4]; 40 mg/kg IP QD 14 days alone): 69 days | median survival time ([4]; 40 mg/kg IP QD 14 days with 5-azacytidine): > 104 days
